Assay results taken from paper PMC6946680, “Modulation of brain cation-Cl^− cotransport via the SPAK kinase inhibitor ZT-1a” (Nature Communications, 2020).
Several values for one entry are separate records, joined by “and”; a condition that tells them apart may be missing. Equal values may be shown once.

Tests used:
[1] = system: NCC pThr46/50/55/60; assay: Pharmacodynamic study, NCC phosphorylation in kidney of naive mice; assay type: in vivo, mouse; conditions: Fig S8b (kidney); 50 mg/kg
Method: To define ZT-1a efficacy in naive mice in vivo, we examined phosphorylation of SPAK, NKCC1, and NCC in kidney, and phosphorylation of SPAK, NKCC1, and KCC3 in brain, after intraperitoneal (i.p.) administration of either ZT-1a (10, 30, 50, and 100 mg/kg) or Closantel (50 mg/kg as a reference). […]
5. Pharmacodynamic (PD) study
Male C57BL/6j wild-type mice (6 weeks old, Charles River Laboratories Edinburgh UK) were treated with ZT-1a (in DMSO, Sigma) by subcutaneous injection at doses of 0, 3, 10, 30, 50 and 100 mg/kg. 50 mg/kg Closantel was administered as a comparative control. Vehicle control mice were treated with an equal volume of DMSO solution. One hour after administration, mice were sacrificed by cervical dislocation, and kidney and brain tissues were rapidly dissected and snap-frozen in liquid nitrogen. Age- […]
free conditions at the University of Dundee (UK) as described in our recent study1. Animal experiments and breeding were approved by the University of Dundee ethical committee and performed under a […]
Policy on the Care, Welfare and Treatment of Animals, and regulations set by the University of Dundee and the U.K. Home Office. […]
Brain and kidney tissues were collected at 60 min post injection, and proteins subjected to immunoblot were probed with antibodies specific for phosphorylated forms of SPAK,

[2] = system: regional cerebral blood flow; assay: Regional cerebral blood flow by laser speckle contrast imaging after tMCAO; assay type: in vivo, mouse; conditions: single mice
Method: Regional cerebral blood flow was measured using a two-dimensional laser speckle contrast analysis system (PeriCam PSI High Resolution with PIMSoft, Perimed)[65]. Isoflurane-anesthetized mice were head-fixed using stereotaxic equipment during imaging. The skin was retracted to expose the intact skull. Images were taken at 19 frames/second with averaging. Average signal intensity was taken from fixed-size (0.5-mm^2) regions of interest drawn over the parietal bone plate on the ipsi (IL)- and contralateral (CL) sides. Percent perfusion values were taken in comparison with the mean values of the pre-ischemic ipsilateral side. Five consecutive images at each time period per animal were averaged for analysis. […]
cerebral blood flow (rCBF) in ischemic mice. a and d Representative two-dimensional laser speckle contrast images of rCBF. Vehicle (DMSO), ZT-1a (A, 2.5 mg/kg), or Closantel (D, 1.25 mg/kg, i.p.) was administered i.p. at 3 hr and again at 8 hr post-reperfusion after MCAO. Pseudocolor scale bar indicates relative signal intensity. b and e No changes of rCBF were detected in the non-ischemic […]
contralateral (CL) hemispheres of vehicle-control or ZT-1a-treated (b) or Closantel-treated mice (e).
Data are mean ± SD, n = 3. c and f Similar reductions and recoveries of rCBF in the ischemic ipsilateral hemispheres (IL) were detected in the ZT-1a-treated (c) or Closantel-treated ischemic mice (f), and neither differed from vehicle-injected mice. Data are mean ± SEM, n = 3.

[3] = system: NKCC1 pThr203/207/212; assay: Immunoblot of NKCC1 p-Thr203/Thr207/Thr212 in HEK-293 cells; assay type: cell-based, human; conditions: single replicates
[4] = system: humans; conditions: cited from earlier work

## Cc1cc(C(C#N)c2ccc(Cl)cc2)c(Cl)cc1NC(=O)c1cc(I)cc(I)c1O (centres unmarked) [Closantel, reference compound]
[1]
  pTh46.50.55 / NCC: 0.81 and 1.06 and 0.69 and 0.76
[2]; Fig S10b/S10e, Pre
  % CBF: 100%
[2]; Fig S10b/S10e, Reperfusion 10 min
  % CBF: 84% and 95% and 110%
[2]; Fig S10b/S10e, Reperfusion 20 min
  % CBF: 94% and 89% and 92%
[2]; Fig S10b/S10e, Reperfusion 3 h
  % CBF: 108% and 97% and 120%
[2]; Fig S10b/S10e, Reperfusion 4 h
  % CBF: 105% and 104% and 110%
[2]; Fig S10b/S10e, Reperfusion 24 h
  % CBF: 119% and 83% and 102%
[2]; Fig S10b/S10e, mcao 10 min
  % CBF: 113% and 80% and 120%
[2]; Fig S10b/S10e, mcao 20min
  % CBF: 111% and 75% and 88%
[2]; Fig S10b/S10e, mcao 50 min
  % CBF: 111% and 76% and 90%
[2]; Fig S10c/S10f, Pre
  % CBF: 100%
[2]; Fig S10c/S10f, Reperfusion 10 min
  % CBF: 68% and 56%
[2]; Fig S10c/S10f, Reperfusion 20 min
  % CBF: 65% and 75% and 58%
[2]; Fig S10c/S10f, Reperfusion 3 h
  % CBF: 88% and 84% and 92%
[2]; Fig S10c/S10f, Reperfusion 4 h
  % CBF: 101% and 92% and 90%
[2]; Fig S10c/S10f, Reperfusion 24 h
  % CBF: 120% and 101% and 104%
[2]; Fig S10c/S10f, mcao 10 min
  % CBF: 34% and 30% and 35%
[2]; Fig S10c/S10f, mcao 20min
  % CBF: 37% and 32% and 33%
[2]; Fig S10c/S10f, mcao 50 min
  % CBF: 34% and 33%
[3]; Hypotonic low Cl, 1 uM
  pNKCC1/NKCC1 band intensity ratio: 1.007 and 1.145 and 1.103 and 1.12
[3]; Hypotonic low Cl, 3 uM
  pNKCC1/NKCC1 band intensity ratio: 0.767 and 0.631 and 0.6563 and 0.721
[3]; Hypotonic low Cl, 10 uM
  pNKCC1/NKCC1 band intensity ratio: 0.313 and 0.28 and 0.243 and 0.21
[3]; Isotonic control, 1 uM
  pNKCC1/NKCC1 band intensity ratio: 0.204 and 0.171 and 0.186 and 0.195
[3]; Isotonic control, 3 uM
  pNKCC1/NKCC1 band intensity ratio: 0.054 and 0.067 and 0.053 and 0.062
[3]; Isotonic control, 10 uM
  pNKCC1/NKCC1 band intensity ratio: 0.03 and 0.047 and 0.044 and 0.038
[4]
  toxicity contraindicating use in humans: retinal toxicity
